Values of other authors, collected in US20220211602A1, “INCREASING THE STABILITY OF AGENTS FOR TREATING KERATIN MATERIAL” (Henkel AG & Co. KGaA, priority 2019, published 2022).

Conditions: for solubility in water: 25° C.

solubility in water (in words) (at 25° C.) | SMILES | solubility in water
highly soluble | O=C([O-])C1=NN(c2ccc(S(=O)(=O)[O-])cc2)C(=O)C1N=Nc1ccc(S(=O)(=O)[O-])cc1.[Na+].[Na+].[Na+] (stereo not shown) [Acid Yellow 23, trisodium salt of4,5-dihydro-5-oxo-1-(4-sulfophenyl)-4-((4-sulfophenyl)azo)-1H-pyrazole-3-carboxylic acid] | –
– | O=C([O-])c1c(Cl)c(Cl)c(Cl)c(Cl)c1-c1c2c(Br)cc(=O)c(Br)c-2oc2c(Br)c(O)cc(Br)c12.O=C([O-])c1c(Cl)c(Cl)c(Cl)c(Cl)c1-c1c2c(Br)cc(=O)c(Br)c-2oc2c(Br)c(O)cc(Br)c12.[Na+].[Na+] [Acid Red 92, disodium salt of 3,4,5,6-tetrachloro-2-(1,4,5,8-tetrabromo-6-hydroxy-3-oxoxanthen-9-yl)benzoic acid] | greater than 10 g/L
– | Nc1cc(S(=O)(=O)[O-])cc2cc(S(=O)(=O)[O-])c(N=Nc3ccccc3)c(O)c12.[Na+].[Na+] [Acid Red 33, disodium salt of 5-amino-4-hydroxy-3-(phenylazo)-naphthalene-2,7-disulphonate] | 2500 µg/mL
– | O=S(=O)([O-])c1ccc(N=Nc2c(O)ccc3ccccc23)cc1.[Na+] [Acid Orange 7, sodium salt of 4-[(2-hydroxy-1-naphthyDazo]benzene sulphonate] | more than 7 g/L
